Assay results published in ChEMBL document CHEMBL2073920 (Eur J Pharmacol, 1998).

Key:
[1] = molecular target: T1, ATP-dependent translocase ABCB1 (Homo sapiens, UniProt P08183); test: TP_TRANSPORTER: inhibition of Rhodamine 123 transepithelial transport (basal to apical)(R123: 5 uM, Midazolam: 100 uM) in Caco-2 cells; assay type: functional, cell-based; conditions: caco-2, 100 µM
[2] = molecular target: T1, ATP-dependent translocase ABCB1; test: TP_TRANSPORTER: transepithelial transport (basal to apical) in Caco-2 cells; assay type: functional, cell-based

T1 sequence (P08183 whole entry): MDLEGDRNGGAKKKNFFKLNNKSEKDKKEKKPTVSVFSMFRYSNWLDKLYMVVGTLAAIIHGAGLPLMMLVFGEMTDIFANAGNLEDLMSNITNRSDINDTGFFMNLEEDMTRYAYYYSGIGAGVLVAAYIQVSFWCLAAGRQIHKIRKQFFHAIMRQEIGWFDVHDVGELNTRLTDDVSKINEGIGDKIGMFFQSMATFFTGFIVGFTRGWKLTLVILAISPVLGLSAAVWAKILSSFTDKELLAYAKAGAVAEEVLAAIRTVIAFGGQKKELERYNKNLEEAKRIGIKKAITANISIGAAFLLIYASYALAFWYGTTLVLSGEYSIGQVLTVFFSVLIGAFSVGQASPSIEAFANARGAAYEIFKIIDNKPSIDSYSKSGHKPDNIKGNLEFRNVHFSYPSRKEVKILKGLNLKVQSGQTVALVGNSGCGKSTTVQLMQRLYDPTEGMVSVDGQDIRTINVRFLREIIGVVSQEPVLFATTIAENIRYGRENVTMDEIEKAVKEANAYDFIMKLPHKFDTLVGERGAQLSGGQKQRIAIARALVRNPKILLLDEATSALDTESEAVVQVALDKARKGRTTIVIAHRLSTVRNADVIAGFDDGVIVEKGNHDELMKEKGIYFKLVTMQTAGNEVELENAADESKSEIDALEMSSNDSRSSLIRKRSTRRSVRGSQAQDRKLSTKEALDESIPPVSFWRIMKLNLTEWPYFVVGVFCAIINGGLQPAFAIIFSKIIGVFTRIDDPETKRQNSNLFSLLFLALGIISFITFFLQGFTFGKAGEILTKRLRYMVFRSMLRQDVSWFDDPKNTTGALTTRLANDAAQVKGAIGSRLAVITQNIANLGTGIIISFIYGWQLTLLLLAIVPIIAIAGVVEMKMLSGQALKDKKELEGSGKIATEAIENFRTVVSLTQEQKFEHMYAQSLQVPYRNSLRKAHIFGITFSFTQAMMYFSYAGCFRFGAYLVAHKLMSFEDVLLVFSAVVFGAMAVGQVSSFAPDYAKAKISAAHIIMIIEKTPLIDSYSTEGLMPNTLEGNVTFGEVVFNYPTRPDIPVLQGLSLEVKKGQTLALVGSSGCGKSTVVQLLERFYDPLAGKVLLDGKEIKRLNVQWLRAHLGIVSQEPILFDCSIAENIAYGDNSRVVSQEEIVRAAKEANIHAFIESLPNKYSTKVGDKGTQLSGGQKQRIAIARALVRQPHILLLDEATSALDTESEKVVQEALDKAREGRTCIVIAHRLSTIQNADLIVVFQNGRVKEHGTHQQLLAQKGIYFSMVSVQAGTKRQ

Compound: Cc1ncc2n1-c1ccc(Cl)cc1C(c1ccccc1F)=NC2 [MIDAZOLAM]
- Activity [1]: inhibitor [(at a rough estimate) 55 % of control]
- Activity [2]: substrate [+]
